According to patent US9156845B2, “4-(substituted amino)-7H-pyrrolo[2,3-d] pyrimidines as LRRK2 inhibitors” (Pfizer Inc., priority 2012, dated 2015):

How the values were obtained:
[1] = molecular target: GST-tagged truncated LRRK2 (Homo sapiens (Human), UniProt Q5S007); experiment: LRRK2 Lantha Screen kinase assay; format: biochemical; details: geometric mean of 2-5 determinations unless otherwise indicated (a: >=6 determinations; b: single determination); read-out: LRRK2 WT IC50
mutant G2019S LRRK2 = mutant G2019S LRRK2 (Homo sapiens (Human), UniProt Q5S007, G2019S); experiment: LRRK2 Lantha Screen kinase assay, mutant enzyme; format: biochemical; details: geometric mean of 2-5 determinations unless otherwise indicated (a: >=6 determinations; b: single determination)
mutant G2019S LRRK2, sequence (Q5S007 970-2527 G2019S): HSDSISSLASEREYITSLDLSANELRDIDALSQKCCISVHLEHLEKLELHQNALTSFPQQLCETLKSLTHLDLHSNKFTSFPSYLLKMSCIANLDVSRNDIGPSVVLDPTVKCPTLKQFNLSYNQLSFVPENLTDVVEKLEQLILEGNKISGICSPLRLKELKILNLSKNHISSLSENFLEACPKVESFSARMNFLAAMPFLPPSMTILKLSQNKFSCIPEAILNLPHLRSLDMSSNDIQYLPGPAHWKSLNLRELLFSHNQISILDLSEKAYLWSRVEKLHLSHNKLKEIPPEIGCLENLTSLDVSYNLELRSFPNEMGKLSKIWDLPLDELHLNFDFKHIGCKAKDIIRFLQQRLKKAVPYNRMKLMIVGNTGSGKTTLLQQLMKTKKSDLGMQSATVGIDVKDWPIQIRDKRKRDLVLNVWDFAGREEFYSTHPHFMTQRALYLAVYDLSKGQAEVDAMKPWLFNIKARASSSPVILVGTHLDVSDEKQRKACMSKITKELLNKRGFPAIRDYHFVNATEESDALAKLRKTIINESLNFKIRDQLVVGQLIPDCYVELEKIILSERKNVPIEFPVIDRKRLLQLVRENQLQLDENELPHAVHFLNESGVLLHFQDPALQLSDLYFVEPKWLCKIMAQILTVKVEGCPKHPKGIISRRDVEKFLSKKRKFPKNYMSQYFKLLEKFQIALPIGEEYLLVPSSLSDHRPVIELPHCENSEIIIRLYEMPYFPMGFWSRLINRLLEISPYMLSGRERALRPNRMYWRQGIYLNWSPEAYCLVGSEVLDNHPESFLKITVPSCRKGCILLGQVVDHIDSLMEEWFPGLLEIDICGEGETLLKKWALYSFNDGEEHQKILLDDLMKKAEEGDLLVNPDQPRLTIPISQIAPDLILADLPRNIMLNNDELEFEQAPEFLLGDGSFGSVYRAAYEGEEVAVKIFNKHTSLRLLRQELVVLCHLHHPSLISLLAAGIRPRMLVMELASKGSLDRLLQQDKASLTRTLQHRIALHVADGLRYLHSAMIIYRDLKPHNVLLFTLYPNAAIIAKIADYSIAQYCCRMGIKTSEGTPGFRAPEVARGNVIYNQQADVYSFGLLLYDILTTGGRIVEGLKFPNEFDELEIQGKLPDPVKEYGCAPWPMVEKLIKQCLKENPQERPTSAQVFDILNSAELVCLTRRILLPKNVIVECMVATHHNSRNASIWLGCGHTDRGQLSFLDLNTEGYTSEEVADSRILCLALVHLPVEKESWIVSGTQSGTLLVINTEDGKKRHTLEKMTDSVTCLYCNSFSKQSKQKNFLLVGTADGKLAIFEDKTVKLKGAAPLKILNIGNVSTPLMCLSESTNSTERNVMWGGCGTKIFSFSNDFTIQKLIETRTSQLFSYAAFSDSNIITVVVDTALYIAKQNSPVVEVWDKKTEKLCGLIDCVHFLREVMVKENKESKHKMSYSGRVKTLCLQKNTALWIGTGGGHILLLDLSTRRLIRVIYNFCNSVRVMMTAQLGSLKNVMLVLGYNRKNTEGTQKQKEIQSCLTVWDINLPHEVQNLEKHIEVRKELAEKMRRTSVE

GST-tagged truncated LRRK2, sequence (Q5S007 970-2527): as the sequence (Q5S007 970-2527 G2019S) above, with S1050G counted along it

SMILES | IC50 [1] | IC50 (mutant G2019S LRRK2)
CC1CCN(c2ncnc3[nH]cc(-c4cccc(C#N)c4)c23)CC1 [Example 62, 3-[4-(4-methylpiperidin-1-yl)-7H-pyrrolo[2,3-d]pyrimidin-5-yl]benzonitrile] | 91 nM | 273 nM
C[C@H]1CCCN(c2ncnc3[nH]cc(-c4cccc(C(=O)O)c4)c23)C1 [Example 63, 3-{4-[(3S)-3-methylpiperidin-1-yl]-7H-pyrrolo[2,3-d]pyrimidin-5-yl}benzoic acid] | 55 nM | 39 nM
CNc1ncnc2[nH]cc(-c3cccc(C#N)c3)c12 [Example 64, 3-[4-(methylamino)-7H-pyrrolo[2,3-d]pyrimidin-5-yl]benzonitrile] | 45 nM | 97 nM
COc1ccc(C#N)cc1-c1c[nH]c2ncnc(N3C[C@H](C)C[C@H](C)C3)c12 [Example 65, 3-[4-(3,5-cis-dimethylpiperidin-1-yl)-7H-pyrrolo[2,3-d]pyrimidin-5-yl]-4-methoxybenzonitrile] | 85 nM | 176 nM
COc1ccc(C#N)cc1-c1c[nH]c2ncnc(N3CCC[C@H](C)C3)c12 [Example 66, 4-methoxy-3-{4-[(3S)-3-methylpiperidin-1-yl]-7H-pyrrolo[2,3-d]pyrimidin-5-yl}benzonitrile] | 21 nM | 51 nM
C[C@H]1CCCN(c2ncnc3[nH]cc(-c4cccc(C#N)c4F)c23)C1 [Example 67, 2-fluoro-3-{4-[(3S)-3-methylpiperidin-1-yl]-7H-pyrrolo[2,3-d]pyrimidin-5-yl}benzonitrile] | 11 nM | 35 nM
CN(C)c1ncnc2[nH]cc(-c3ccccc3)c12 [Example 68, N,N-dimethyl-5-phenyl-7H-pyrrolo[2,3-d]pyrimidin-4-amine] | 63 nM | 39 nM
CN(C)c1ncnc2[nH]cc(-c3cccc(C#N)c3F)c12 [Example 69, 3-[4-(dimethylamino)-7H-pyrrolo[2,3-d]pyrimidin-5-yl]-2-fluorobenzonitrile] | 6 nM | 17 nM
N#Cc1cccc(-c2c[nH]c3ncnc(N4CCCC4)c23)c1 [Example 70, 3-[4-(pyrrolidin-1-yl)-7H-pyrrolo[2,3-d]pyrimidin-5-yl]benzonitrile] | 8 nM | 64 nM
CN(C)c1ncnc2[nH]cc(-c3cc(C#N)ccc3F)c12 [Example 72, 3-[4-(dimethylamino)-7H-pyrrolo[2,3-d]pyrimidin-5-yl]-4-fluorobenzonitrile] | 37 nM | 190 nM
CCN(CC)c1ncnc2[nH]cc(-c3cccc(C#N)c3)c12 [Example 73, 3-[4-(diethylamino)-7H-pyrrolo[2,3-d]pyrimidin-5-yl]benzonitrile] | 13 nM | 119 nM
CN(C)c1ncnc2[nH]cc(-c3cc(F)cc(C#N)c3)c12 [Example 75, 3-[4-(dimethylamino)-7H-pyrrolo[2,3-d]pyrimidin-5-yl]-5-fluorobenzonitrile] | 53 nM | 396 nM
N#Cc1cccc(-c2c[nH]c3ncnc(N4CCOCC4)c23)c1F [Example 78, 2-fluoro-3-[4-(morpholin-4-yl)-7H-pyrrolo[2,3-d]pyrimidin-5-yl]benzonitrile] | 2 nM | 7 nM
C[C@@H]1CN(c2ncnc3[nH]cc(-c4cccc(C#N)c4)c23)CCO1 [Example 79, 3-{4-[(2R)-2-methylmorpholin-4-yl]-7H-pyrrolo[2,3-d]pyrimidin-5-yl}benzonitrile] | 18 nM | 69 nM
N#Cc1ccc(F)c(-c2c[nH]c3ncnc(N4CCOCC4)c23)c1 [Example 80, 4-fluoro-3-[4-(morpholin-4-yl)-7H-pyrrolo[2,3-d]pyrimidin-5-yl]benzonitrile] | 49 nM | 393 nM
Cn1cc(-c2c[nH]c3ncnc(N4CCC(F)CC4)c23)cn1 [Example 81, 4-(4-fluoropiperidin-1-yl)-5-(1-methyl-1H-pyrazol-4-yl)-7H-pyrrolo[2,3-d]pyrimidine] | 36 nM | 50 nM
N#Cc1ccccc1-c1c[nH]c2ncnc(N3CCOCC3)c12 [Example 82, 2-[4-(morpholin-4-yl)-7H-pyrrolo[2,3-d]pyrimidin-5-yl]benzonitrile] | 95 nM | 148 nM
Clc1cccc(-c2c[nH]c3ncnc(N4CCOCC4)c23)c1 [Example 83, 5-(3-chlorophenyl)-4-(morpholin-4-yl)-7H-pyrrolo[2,3-d]pyrimidine] | 8 nM | 13 nM
Fc1ccccc1-c1c[nH]c2ncnc(N3CCOCC3)c12 [Example 84, 5-(2-fluorophenyl)-4-(morpholin-4-yl)-7H-pyrrolo[2,3-d]pyrimidine] | 22 nM | 30 nM
COc1cc(F)cc(-c2c[nH]c3ncnc(N4CCOCC4)c23)c1 [Example 85, 5-(3-fluoro-5-methoxyphenyl)-4-(morpholin-4-yl)-7H-pyrrolo[2,3-d]pyrimidine] | 9 nM | 20 nM
Fc1ccc(F)c(-c2c[nH]c3ncnc(N4CCOCC4)c23)c1 [Example 86, 5-(2,5-difluorophenyl)-4-(morpholin-4-yl)-7H-pyrrolo[2,3-d]pyrimidine] | 76 nM | 145 nM

SMILES | IC50 [1] | IC50 (mutant G2019S LRRK2)
Fc1cccc(-c2c[nH]c3ncnc(N4CCOCC4)c23)c1F [Example 87, 5-(2,3-difluorophenyl)-4-(morpholin-4-yl)-7H-pyrrolo[2,3-d]pyrimidine] | 12 nM | 24 nM
Fc1ccc(Cl)cc1-c1c[nH]c2ncnc(N3CCOCC3)c12 [Example 88, 5-(5-chloro-2-fluorophenyl)-4-(morpholin-4-yl)-7H-pyrrolo[2,3-d]pyrimidine] | 9 nM | 12 nM
OCc1cccc(-c2c[nH]c3ncnc(N4CCOCC4)c23)c1F [Example 89, {2-fluoro-3-[4-(morpholin-4-yl)-7H-pyrrolo[2,3-d]pyrimidin-5-yl]phenyl}methanol] | 32 nM | 75 nM
Fc1ccc(-c2c[nH]c3ncnc(N4CCOCC4)c23)c(F)c1 [Example 90, 5-(2,4-difluorophenyl)-4-(morpholin-4-yl)-7H-pyrrolo[2,3-d]pyrimidine] | 41 nM | 62 nM
Fc1cccc(-c2c[nH]c3ncnc(N4CCOCC4)c23)c1 [Example 91, 5-(3-fluorophenyl)-4-(morpholin-4-yl)-7H-pyrrolo[2,3-d]pyrimidine] | 9 nM | 21 nM
Fc1cc(F)cc(-c2c[nH]c3ncnc(N4CCOCC4)c23)c1 [Example 92, 5-(3,5-difluorophenyl)-4-(morpholin-4-yl)-7H-pyrrolo[2,3-d]pyrimidine] | 92 nM | 238 nM
c1ccc(-c2c[nH]c3ncnc(N4CCOCC4)c23)cc1 [Example 93, 4-(morpholin-4-yl)-5-phenyl-7H-pyrrolo[2,3-d]pyrimidine] | 9 nM | 14 nM
COc1ccc(F)cc1-c1c[nH]c2ncnc(N3CCOCC3)c12 [Example 94, 5-(5-fluoro-2-methoxyphenyl)-4-(morpholin-4-yl)-7H-pyrrolo[2,3-d]pyrimidine] | 7 nM | 10 nM
Clc1ccccc1-c1c[nH]c2ncnc(N3CCOCC3)c12 [Example 95, 5-(2-chlorophenyl)-4-(morpholin-4-yl)-7H-pyrrolo[2,3-d]pyrimidine] | 21 nM | 33 nM
Cc1ccc(F)cc1-c1c[nH]c2ncnc(N3CCOCC3)c12 [Example 96, 5-(5-fluoro-2-methylphenyl)-4-(morpholin-4-yl)-7H-pyrrolo[2,3-d]pyrimidine] | 91 nM | 223 nM
COc1cccc(-c2c[nH]c3ncnc(N4CCOCC4)c23)c1 [Example 97, 5-(3-methoxyphenyl)-4-(morpholin-4-yl)-7H-pyrrolo[2,3-d]pyrimidine] | 28 nM | 46 nM
OCc1cc(-c2c[nH]c3ncnc(N4CCOCC4)c23)ccc1F [Example 98, {2-fluoro-5-[4-(morpholin-4-yl)-7H-pyrrolo[2,3-d]pyrimidin-5-yl]phenyl}methanol] | 70 nM | 135 nM
Fc1ccc(-c2c[nH]c3ncnc(N4CCOCC4)c23)cc1 [Example 99, 5-(4-fluorophenyl)-4-(morpholin-4-yl)-7H-pyrrolo[2,3-d]pyrimidine] | 95 nM | 154 nM
OCc1cccc(-c2c[nH]c3ncnc(N4CCOCC4)c23)c1 [Example 100, {3-[4-(morpholin-4-yl)-7H-pyrrolo[2,3-d]pyrimidin-5-yl]phenyl}methanol] | 12 nM | 19 nM
COc1ccccc1-c1c[nH]c2ncnc(N3CCOCC3)c12 [Example 101, 5-(2-methoxyphenyl)-4-(morpholin-4-yl)-7H-pyrrolo[2,3-d]pyrimidine] | 14 nM | 23 nM
CSc1cccc(-c2c[nH]c3ncnc(N4CCOCC4)c23)c1 [Example 102, 5-[3-(methylsulfanyl)phenyl]-4-(morpholin-4-yl)-7H-pyrrolo[2,3-d]pyrimidine] | 52 nM | 78 nM
c1cncc(-c2c[nH]c3ncnc(N4CCOCC4)c23)c1 [Example 103, 4-(morpholin-4-yl)-5-(pyridin-3-yl)-7H-pyrrolo[2,3-d]pyrimidine] | 35 nM | 159 nM
c1ccc2c(-c3c[nH]c4ncnc(N5CCOCC5)c34)cncc2c1 [Example 104, 4-[4-(morpholin-4-yl)-7H-pyrrolo[2,3-d]pyrimidin-5-yl]isoquinoline] | 27 nM | 51 nM
Brc1cncc(-c2c[nH]c3ncnc(N4CCOCC4)c23)c1 [Example 105, 5-(5-bromopyridin-3-yl)-4-(morpholin-4-yl)-7H-pyrrolo[2,3-d]pyrimidine] | 6 nM | 14 nM
Cc1ccc(Cl)c(-c2c[nH]c3ncnc(N4CCOCC4)c23)c1 [Example 106, 5-(2-chloro-5-methylphenyl)-4-(morpholin-4-yl)-7H-pyrrolo[2,3-d]pyrimidine] | 22 nM | 44 nM
